According to PubChem BioAssay AID256 (DTP/NCI, 2004):
Values joined by “and” are separate entries in the source; they are usually repeats but may differ in a detail not shown here. Equal values may be shown once. Inconclusive results and toxic doses are left out.

Test system: CD2F1 mice, L1210 leukemia ip, survival T/C
Test: NCI In Vivo Anticancer Drug Screen. Data for tumor model L1210 Leukemia (intraperitoneal) in CD2F1 (CDF1) mice
Conditions: higher = longer survival
Outline: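 Vehicle-treated tumor-bearing mice served as controls (C) for compound-treated mice (T). Reported figure is T divided by C.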

[1] = endpoint: mean survival time, dose: 100.0 mg/kg/injection, schedule: Q01DX001 (ip), vehicle: saline with Tween-80
[2] = endpoint: mean survival time, dose: 200.0 mg/kg/injection, schedule: Q01DX001 (ip), vehicle: saline with Tween-80
[3] = endpoint: mean survival time, dose: 400.0 mg/kg/injection, schedule: Q01DX001 (ip), vehicle: saline with Tween-80
[4] = endpoint: mean survival time, dose: 100.0 mg/kg/injection, schedule: Q01DX009 (ip), vehicle: saline with Tween-80
[5] = endpoint: mean survival time, dose: 200.0 mg/kg/injection, schedule: Q04DX003 (ip), vehicle: saline with Tween-80
[6] = endpoint: mean survival time, dose: 100.0 mg/kg/injection, schedule: Q04DX003 (ip), vehicle: saline with Tween-80
[7] = endpoint: mean survival time, dose: 400.0 mg/kg/injection, schedule: Q04DX003 (ip), vehicle: saline with Tween-80
[8] = endpoint: mean survival time, dose: 200.0 mg/kg/injection, schedule: Q01DX009 (ip), vehicle: saline with Tween-80
[9] = endpoint: mean survival time, dose: 400.0 mg/kg/injection, schedule: Q01DX009 (ip), vehicle: saline with Tween-80

CC(=O)OCC(OC(C)=O)C(OC(C)=O)C(OC(C)=O)C(OC(C)=O)OC(C)=O (configuration not stated)
T/C [1]: 94 % of control | T/C [2]: 96 % of control | T/C [3]: 96 % of control

COc1cc(OC)c(OC)cc1/C=C\c1ccnc2ccccc12
T/C (endpoint: mean survival time, dose: 12.5 mg/kg/injection, schedule: Q01DX009 (ip), vehicle: Klucel (hydroxypropylcellulose) (HPC)): 96 % of control | T/C (endpoint: mean survival time, dose: 25.0 mg/kg/injection, schedule: Q01DX009 (ip), vehicle: Klucel (hydroxypropylcellulose) (HPC)): 95 % of control | T/C (endpoint: mean survival time, dose: 50.0 mg/kg/injection, schedule: Q01DX009 (ip), vehicle: Klucel (hydroxypropylcellulose) (HPC)): 98 % of control | T/C (endpoint: mean survival time, dose: 100.0 mg/kg/injection, schedule: Q01DX009 (ip), vehicle: Klucel (hydroxypropylcellulose) (HPC)): 102 % of control | T/C (endpoint: mean survival time, dose: 200.0 mg/kg/injection, schedule: Q01DX009 (ip), vehicle: Klucel (hydroxypropylcellulose) (HPC)): 112 % of control | T/C (endpoint: mean survival time, dose: 400.0 mg/kg/injection, schedule: Q01DX009 (ip), vehicle: Klucel (hydroxypropylcellulose) (HPC)): 110 % of control

O=[N+]([O-])O.[In]
T/C (endpoint: mean survival time, dose: 1.25 mg/kg/injection, schedule: Q01DX009 (ip), vehicle: saline): 93 % of control | T/C (endpoint: mean survival time, dose: 2.5 mg/kg/injection, schedule: Q01DX009 (ip), vehicle: saline): 96 % of control | T/C (endpoint: mean survival time, dose: 5.0 mg/kg/injection, schedule: Q01DX009 (ip), vehicle: saline): 95 % of control | T/C (endpoint: mean survival time, dose: 10.0 mg/kg/injection, schedule: Q01DX009 (ip), vehicle: saline): 96 % of control

CC(C)[N-]C(C)C.CC(C)[N-]C(C)C.[Cl][Pt+2][Cl]
T/C (endpoint: mean survival time, dose: 10.0 mg/kg/injection, schedule: Q04DX003 (ip), vehicle: saline with Tween-80): 102 % of control | T/C (endpoint: mean survival time, dose: 20.0 mg/kg/injection, schedule: Q04DX003 (ip), vehicle: saline with Tween-80): 97 % of control | T/C (endpoint: mean survival time, dose: 40.0 mg/kg/injection, schedule: Q04DX003 (ip), vehicle: saline with Tween-80): 105 % of control | T/C (endpoint: mean survival time, dose: 80.0 mg/kg/injection, schedule: Q04DX003 (ip), vehicle: saline with Tween-80): 97 % of control | T/C (endpoint: mean survival time, dose: 160.0 mg/kg/injection, schedule: Q04DX003 (ip), vehicle: saline with Tween-80): 97 % of control

c1ccc(P(=N[P+](c2ccccc2)(c2ccccc2)c2ccccc2)(c2ccccc2)c2ccccc2)cc1
T/C (endpoint: mean survival time, dose: 0.75 mg/kg/injection, schedule: Q01DX009 (ip), vehicle: saline): 106 % of control | T/C (endpoint: mean survival time, dose: 1.5 mg/kg/injection, schedule: Q01DX009 (ip), vehicle: saline): 103 % of control | T/C (endpoint: mean survival time, dose: 3.13 mg/kg/injection, schedule: Q01DX009 (ip), vehicle: saline with Tween-80): 94 % of control | T/C (endpoint: mean survival time, dose: 3.13 mg/kg/injection, schedule: Q04DX002 (ip), vehicle: saline with Tween-80): 102 % of control | T/C (endpoint: mean survival time, dose: 6.25 mg/kg/injection, schedule: Q04DX002 (ip), vehicle: saline with Tween-80): 110 % of control | T/C (endpoint: mean survival time, dose: 12.5 mg/kg/injection, schedule: Q04DX002 (ip), vehicle: saline with Tween-80): 90 % of control and 93 % of control

O=C(O)c1cc(C(=O)O)cc(S(=O)(=O)O)c1.[NH-]C1CCCCC1[NH-].[Pt+2]
T/C (endpoint: median survival time, dose: 3.12 mg/kg/injection, schedule: Q04DX003 (ip), vehicle: saline): 121 % of control and 103 % of control | T/C (endpoint: median survival time, dose: 12.5 mg/kg/injection, schedule: Q04DX003 (ip), vehicle: saline): 168 % of control | T/C (endpoint: median survival time, dose: 25.0 mg/kg/injection, schedule: Q04DX003 (ip), vehicle: saline): 176 % of control | T/C (endpoint: median survival time, dose: 50.0 mg/kg/injection, schedule: Q04DX003 (ip), vehicle: saline): 235 % of control and 350 % of control | T/C (endpoint: median survival time, dose: 100.0 mg/kg/injection, schedule: Q04DX003 (ip), vehicle: saline): 188 % of control

Nc1nc(Cl)c2[nH]cnc2n1
T/C (endpoint: mean survival time, dose: 13.3 mg/kg/injection, schedule: Q01DX009 (ip), vehicle: saline with Tween-80): 153 % of control | T/C (endpoint: mean survival time, dose: 44.0 mg/kg/injection, schedule: Q01DX009 (ip), vehicle: saline with Tween-80): 151 % of control and 154 % of control | T/C (endpoint: mean survival time, dose: 60.0 mg/kg/injection, schedule: Q04DX003 (ip), vehicle: saline with Tween-80): 181 % of control | T/C (endpoint: mean survival time, dose: 66.0 mg/kg/injection, schedule: Q01DX009 (ip), vehicle: saline with Tween-80): 100 % of control | T/C (endpoint: mean survival time, dose: 75.0 mg/kg/injection, schedule: Q04DX003 (ip), vehicle: saline with Tween-80): 160 % of control | T/C (endpoint: mean survival time, dose: 88.0 mg/kg/injection, schedule: Q01DX009 (ip), vehicle: saline with Tween-80): 116 % of control | T/C [4]: 111 % of control | T/C (endpoint: mean survival time, dose: 132.0 mg/kg/injection, schedule: Q01DX009 (ip), vehicle: saline with Tween-80): 113 % of control | T/C (endpoint: mean survival time, dose: 150.0 mg/kg/injection, schedule: Q01DX009 (ip), vehicle: saline with Tween-80): 86 % of control | T/C (endpoint: mean survival time, dose: 150.0 mg/kg/injection, schedule: Q04DX003 (ip), vehicle: saline with Tween-80): 156 % of control and 168 % of control | T/C [5]: 122 % of control | T/C (endpoint: mean survival time, dose: 300.0 mg/kg/injection, schedule: Q01DX009 (ip), vehicle: saline with Tween-80): 111 % of control

COc1cccc2c1C(=O)c1c(O)c3c(c(O)c1C2=O)CC(O)(C(=O)CO)CC3OC1CC(N)C(O)C(C)O1.[Cl][Pt+2][Cl].[NH2-].[NH2-] (configuration not stated)
T/C (endpoint: median survival time, dose: 4.0 mg/kg/injection, schedule: Q04DX003 (ip), vehicle: DMSO): 152 % of control | T/C (endpoint: median survival time, dose: 8.0 mg/kg/injection, schedule: Q04DX003 (ip), vehicle: DMSO): 153 % of control and 154 % of control

FC(F)(F)c1cccc(NC2=NCCS2)c1
T/C (endpoint: mean survival time, dose: 12.5 mg/kg/injection, schedule: Q01DX001 (ip), vehicle: saline with Tween-80): 106 % of control | T/C (endpoint: mean survival time, dose: 25.0 mg/kg/injection, schedule: Q01DX001 (ip), vehicle: saline with Tween-80): 110 % of control | T/C (endpoint: mean survival time, dose: 50.0 mg/kg/injection, schedule: Q01DX001 (ip), vehicle: saline with Tween-80): 101 % of control | T/C [1]: 110 % of control | T/C [2]: 106 % of control | T/C [3]: 105 % of control

N=C(N)c1cccc(NC(=O)CCc2ccccc2)c1
T/C [1]: 97 % of control | T/C [2]: 93 % of control | T/C [3]: 92 % of control

CC(=O)CC(=O)c1ccccc1.CC(=O)CC(=O)c1ccccc1.CC(=O)CC(=O)c1ccccc1.[Tb]
T/C [6]: 93 % of control | T/C [5]: 91 % of control | T/C [7]: 88 % of control

Cc1cccc(C)c1N
T/C [1]: 96 % of control | T/C [2]: 94 % of control | T/C [3]: 91 % of control

CCC(O)(CC)c1ccc2ncccc2c1
T/C (endpoint: mean survival time, dose: 75.0 mg/kg/injection, schedule: Q04DX003 (ip), vehicle: saline): 98 % of control | T/C (endpoint: mean survival time, dose: 150.0 mg/kg/injection, schedule: Q04DX003 (ip), vehicle: saline): 97 % of control | T/C (endpoint: mean survival time, dose: 300.0 mg/kg/injection, schedule: Q04DX003 (ip), vehicle: saline): 98 % of control

COc1ccc([I+]c2ccc(OC)cc2)cc1
T/C (endpoint: mean survival time, dose: 1.5 mg/kg/injection, schedule: Q01DX009 (ip), vehicle: saline with Tween-80): 101 % of control | T/C (endpoint: mean survival time, dose: 3.0 mg/kg/injection, schedule: Q01DX009 (ip), vehicle: saline with Tween-80): 104 % of control | T/C (endpoint: mean survival time, dose: 6.0 mg/kg/injection, schedule: Q01DX009 (ip), vehicle: saline with Tween-80): 107 % of control | T/C (endpoint: mean survival time, dose: 12.5 mg/kg/injection, schedule: Q04DX003 (ip), vehicle: saline with Tween-80): 97 % of control | T/C (endpoint: mean survival time, dose: 25.0 mg/kg/injection, schedule: Q04DX003 (ip), vehicle: saline with Tween-80): 93 % of control | T/C (endpoint: mean survival time, dose: 50.0 mg/kg/injection, schedule: Q04DX003 (ip), vehicle: saline with Tween-80): 93 % of control

CC(C(=O)c1ccccc1)=C(C(F)(F)F)C(F)(F)F
T/C [4]: 98 % of control | T/C [6]: 91 % of control | T/C [8]: 97 % of control | T/C [5]: 97 % of control | T/C [9]: 103 % of control | T/C [7]: 100 % of control

O=[N+]([O-])c1ccc(S(=O)(=O)F)c(Cl)c1
T/C [4]: 100 % of control | T/C (endpoint: mean survival time, dose: 100.0 mg/kg/injection, schedule: Q04DX003 (ip), vehicle: saline): 100 % of control | T/C [8]: 100 % of control | T/C (endpoint: mean survival time, dose: 200.0 mg/kg/injection, schedule: Q04DX003 (ip), vehicle: saline): 101 % of control | T/C [9]: 100 % of control | T/C (endpoint: mean survival time, dose: 400.0 mg/kg/injection, schedule: Q04DX003 (ip), vehicle: saline): 101 % of control

COC(=O)c1ccccc1-c1c(C)cccc1[N+](=O)[O-]
T/C (endpoint: mean survival time, dose: 100.0 mg/kg/injection, schedule: Q01DX001 (ip), vehicle: Klucel (hydroxypropylcellulose) (HPC)): 98 % of control | T/C (endpoint: mean survival time, dose: 200.0 mg/kg/injection, schedule: Q01DX001 (ip), vehicle: Klucel (hydroxypropylcellulose) (HPC)): 87 % of control | T/C (endpoint: mean survival time, dose: 400.0 mg/kg/injection, schedule: Q01DX001 (ip), vehicle: Klucel (hydroxypropylcellulose) (HPC)): 89 % of control
